In PubChem BioAssay AID2060502 (Molecular Pharmacology Branch, DTP, NCI, 2025):
pIC50: −log10 of the molar value.

Test system: 885724-159-R-J1-PDC complex spheroid viability
Test: Anticancer human tumor 885724-159-R-J1-PDC patient-derived pancreatic adenocarcinoma cell line growth inhibition [GQUAD]
Conditions: for pIC50: curve of first compound; for viability, T/C: stronger effect = lower value
Description: DNA G-quadruplex Stabilizer Agents in Combinations in Complex Spheroids
A high-throughput screen of multi-cell type tumor spheroids was designed to identify active combinations of DNA G-quadruplex stabilizer agents and targeted small molecules. Complex spheroids include a stromal component modeled by human endothelial cells (HUVEC) and fibroblasts modeled by human mesenchymal stem cells (MSCs). The concentration ranges selected for each drug and investigational agent were based upon clinically achievable concentrations if the clinical Cmax of the agent was known.
Compounds. The drugs and investigational agents: pidnarulex (CX-5461; NSC782164), APTO-253 (NSC789042), BRACO-19 (NSC847499), peposertib (NSC802822), ceralasertib (NSC780249), elimusertib (NSC800525), camonsertib (NSC841442), AZD-1390 (NSC803789), olaparib (NSC753686), talazoparib (NSC767125), ART-558 (NSC835418), sotorasib (NSC818433), MRTX-1133 (NSC836407), SN-38 (NSC673596), topotecan (NSC609699), etoposide (NSC141540), doxorubicin (NSC123127), gemcitabine (NSC613327), 5-fluorouracil (NSC19893), paclitaxel (NSC125973), vemurafenib (NSC761431), panobinostat (NSC761190), R-306465 (JNJ-16241199; NSC773264), adavosertib (NSC754352), TP-3654 (NSC805149), carboplatin (NSC241240), KSQ-4279 (NSC840948), and staurosporine (NSC755774) were obtained from the National Cancer Institute (NCI) Developmental Therapeutics Program Chemical Repository (34). The FDA-approved anticancer drug set is available from the NCI Developmental Therapeutics Program. […] The stock solutions were prepared in dimethyl sulfoxide (DMSO, Sigma-Aldrich, St. Louis, MO, cat. D2650) at 800-fold the tested concentration and stored at -70 degrees C prior to their use. All drugs and investigational agents were tested over a range starting from a high concentration at or near the clinical Cmax and decreasing in half-log increments. If the clinical Cmax for an agent had not been determined, the highest concentration tested was 10 microM.
2.3 Cell Culture. All cells were maintained in an incubator at 37 degrees C and 5% CO2 with 95% humidity. The PDC lines were cultured according to standard operating procedures established by the NCI PDMR. All PDCs were thawed and cultured in Matrigel-coated flasks prepared with a working solution of 1X Ham's F-12 nutrient mix, without supplementation (Invitrogen, cat. 11765054), 100 U/mL penicillin-streptomycin (Invitrogen, cat. 15140122), and 2.5% Matrigel (Corning Inc., cat. 354248) for the first three passages. The 857933-349-R-J2-PDC line was cultured in 6C/Colon 1B media, which includes advanced DMEM/F-12 (Thermo Fisher Scientific, cat. 12634028), 10 mM HEPES (Thermo Fisher Scientific, cat. 15630080), 1X GlutaMAX supplement (Thermo Fisher Scientific, cat. 35050061), 0.1 mg/mL primocin (InvivoGen, cat. ant-pm-2), 10% defined fetal bovine serum, heat inactivated (HyClone Laboratories Inc., cat. SH30070.03HI), 50% L-WRN conditioned media (ATCC, cat. CRL-3276), 1.25 mM N-Acetyl-L-cysteine (Sigma-Aldrich, cat. A9165), 10 mM nicotinamide (Sigma-Aldrich, cat. N0636), 1X B-27 supplement (Thermo Fisher Scientific, cat. 17504044), 1X N-2 supplement (Thermo Fisher Scientific, cat. 17502048), 10 microM Y-27632 dihydrochloride (Tocris Bioscience, cat. 1254), and 50 ng/mL human EGF recombinant protein (Thermo Fisher Scientific, cat. PHG0311). The 485176-168-R4-J1-PDC line was cultured in Panc media, which includes all 6C/Colon 1B media components plus 100 ng/mL human FGF-10 (Thermo Fisher Scientific, cat. 100-26), 500 nM SB-431542 (Selleckchem, cat. S1067), and gastrin (Tocris, cat. 3006).
[…]

[1] = second compound 0.0316 µM, first compound 0.0316 µM
[2] = second compound 0.0316 µM, first compound 0.1 µM
[3] = second compound 0.0316 µM, first compound 0.316 µM
[4] = second compound 0.0316 µM, first compound 1 µM
[5] = second compound 0.0316 µM, first compound 3.16 µM
[6] = second compound 0.0316 µM, first compound 10 µM
[7] = second compound 0.1 µM, first compound 0.0316 µM
[8] = second compound 0.1 µM, first compound 0.1 µM
[9] = second compound 0.1 µM, first compound 0.316 µM
[10] = second compound 0.1 µM, first compound 1 µM
[11] = second compound 0.1 µM, first compound 3.16 µM
[12] = second compound 0.1 µM, first compound 10 µM
[13] = second compound 0.316 µM, first compound 0.0316 µM
[14] = second compound 0.316 µM, first compound 0.1 µM
[15] = second compound 0.316 µM, first compound 0.316 µM
[16] = second compound 0.316 µM, first compound 1 µM
[17] = second compound 0.316 µM, first compound 3.16 µM
[18] = second compound 0.316 µM, first compound 10 µM
[19] = second compound 1 µM, first compound 0.0316 µM
[20] = second compound 1 µM, first compound 0.1 µM
[21] = second compound 1 µM, first compound 0.316 µM
[22] = second compound 1 µM, first compound 1 µM
[23] = second compound 1 µM, first compound 3.16 µM
[24] = second compound 1 µM, first compound 10 µM
[25] = second compound 3.16 µM, first compound 0.0316 µM
[26] = second compound 3.16 µM, first compound 0.1 µM
[27] = second compound 3.16 µM, first compound 0.316 µM
[28] = second compound 3.16 µM, first compound 1 µM
[29] = second compound 3.16 µM, first compound 3.16 µM
[30] = second compound 3.16 µM, first compound 10 µM
[31] = second compound 10 µM, first compound 0.0316 µM
[32] = second compound 10 µM, first compound 0.1 µM
[33] = second compound 10 µM, first compound 0.316 µM
[34] = second compound 10 µM, first compound 1 µM
[35] = second compound 10 µM, first compound 3.16 µM
[36] = second compound 10 µM, first compound 10 µM
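Further: spheroids exposed to agents for seven days before readout.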
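Wherever viability, T/C is given: percent of vehicle control viability where 100% = DMSO wells.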

**Q.** Which results are given for `O=C(NO)c1cnc(N2CCN(S(=O)(=O)c3ccc4ccccc4c3)CC2)nc1` + CN(C)c1ccc(Nc2c3ccc(NC(=O)CCN4CCCC4)cc3nc3cc(NC(=O)CCN4CCCC4)ccc23)cc1?
**A.** pIC50 (second compound 0.0316 µM): 6.17; pIC50 (second compound 0.1 µM): 6.15; pIC50 (second compound 0.316 µM): 6.24; pIC50 (second compound 1 µM): 6.30; pIC50 (second compound 3.16 µM): 6.28; pIC50 (second compound 10 µM): 6.66; viability, T/C [1]: 91.8%; viability, T/C [2]: 117%; viability, T/C [3]: 78.7%; viability, T/C [4]: 35.9%; viability, T/C [5]: 0.8%; viability, T/C [6]: 0.93%; viability, T/C [7]: 106%; viability, T/C [8]: 100%; viability, T/C [9]: 86.5%; viability, T/C [10]: 34.5%; viability, T/C [11]: 0.82%; viability, T/C [12]: 0.44%; viability, T/C [13]: 83.7%; viability, T/C [14]: 91.2%; viability, T/C [15]: 75.6%; viability, T/C [16]: 26.5%; viability, T/C [17]: 1.07%; viability, T/C [18]: 1.4%; viability, T/C [19]: 80.4%; viability, T/C [20]: 68.9%; viability, T/C [21]: 64.2%; viability, T/C [22]: 29.9%; viability, T/C [23]: 1.26%; viability, T/C [24]: 0.73%; viability, T/C [25]: 71.7%; viability, T/C [26]: 64.6%; viability, T/C [27]: 76.8%; viability, T/C [28]: 22%; viability, T/C [29]: 1.42%; viability, T/C [30]: 0.69%; viability, T/C [31]: 61%; viability, T/C [32]: 59%; viability, T/C [33]: 43.7%; viability, T/C [34]: 26.7%; viability, T/C [35]: 1.36%; viability, T/C [36]: 2.05%

**Q.** How did the pIC50 (second compound 0.0316 µM) turn out when `CC1COCCN1c1cc(C2(S(C)(=N)=O)CC2)nc(-c2ccnc3[nH]ccc23)n1` (centres undefined) + Cc1cnc(CNC(=O)c2c(=O)c3ccc(N4CCCN(C)CC4)nc3n3c2sc2ccccc23)cn1 was run?
**A.** Its pIC50 is less than 5.00.

**Q.** What about the pIC50 (second compound 0.1 µM) of the same molecule?
**A.** The pIC50 was less than 5.00.

**Q.** And the pIC50 (second compound 0.316 µM)?
**A.** Its pIC50 is less than 5.00.

**Q.** What about the pIC50 (second compound 1 µM) of the same molecule?
**A.** The pIC50 was less than 5.00.

**Q.** And the pIC50 (second compound 3.16 µM)?
**A.** Its pIC50 is less than 5.00.

**Q.** What about the pIC50 (second compound 10 µM) of the same molecule?
**A.** The pIC50 was less than 5.00.

**Q.** What about the viability, T/C [1] of the same molecule?
**A.** Its viability, T/C is 101%.

**Q.** And the viability, T/C [2]?
**A.** The viability, T/C was 105%.

**Q.** What about the viability, T/C [3] of the same molecule?
**A.** The viability, T/C was 110%.

**Q.** And the viability, T/C [4]?
**A.** Its viability, T/C is 106%.

**Q.** And the viability, T/C [5]?
**A.** Its viability, T/C is 81.5%.

**Q.** And the viability, T/C [6]?
**A.** Its viability, T/C is 92.3%.

**Q.** And the viability, T/C [7]?
**A.** The viability, T/C was 118%.

**Q.** What about the viability, T/C [8] of the same molecule?
**A.** Its viability, T/C is 105%.

**Q.** What about the viability, T/C [9] of the same molecule?
**A.** Its viability, T/C is 116%.

**Q.** And the viability, T/C [10]?
**A.** Its viability, T/C is 108%.

**Q.** And the viability, T/C [11]?
**A.** Its viability, T/C is 103%.

**Q.** And the viability, T/C [12]?
**A.** Its viability, T/C is 91.2%.

**Q.** And the viability, T/C [13]?
**A.** The viability, T/C was 114%.

**Q.** What about the viability, T/C [14] of the same molecule?
**A.** Its viability, T/C is 99%.

**Q.** And the viability, T/C [15]?
**A.** Its viability, T/C is 98.3%.

**Q.** And the viability, T/C [16]?
**A.** The viability, T/C was 87.3%.

**Q.** And the viability, T/C [17]?
**A.** The viability, T/C was 86%.

**Q.** And the viability, T/C [18]?
**A.** Its viability, T/C is 86.7%.

**Q.** What about the viability, T/C [19] of the same molecule?
**A.** The viability, T/C was 93.5%.

**Q.** And the viability, T/C [20]?
**A.** Its viability, T/C is 78.5%.

**Q.** What about the viability, T/C [21] of the same molecule?
**A.** The viability, T/C was 81.6%.

**Q.** What about the viability, T/C [22] of the same molecule?
**A.** The viability, T/C was 87.2%.

**Q.** What about the viability, T/C [23] of the same molecule?
**A.** The viability, T/C was 90.7%.

**Q.** What about the viability, T/C [24] of the same molecule?
**A.** The viability, T/C was 67.1%.

**Q.** And the viability, T/C [25]?
**A.** The viability, T/C was 82%.

**Q.** What about the viability, T/C [26] of the same molecule?
**A.** Its viability, T/C is 80.4%.

**Q.** And the viability, T/C [27]?
**A.** The viability, T/C was 70.5%.

**Q.** What about the viability, T/C [28] of the same molecule?
**A.** The viability, T/C was 79.8%.

**Q.** What about the viability, T/C [29] of the same molecule?
**A.** Its viability, T/C is 83%.

**Q.** What about the viability, T/C [30] of the same molecule?
**A.** The viability, T/C was 60.2%.

**Q.** And the viability, T/C [31]?
**A.** Its viability, T/C is 72.8%.

**Q.** And the viability, T/C [32]?
**A.** The viability, T/C was 73.4%.

**Q.** What about the viability, T/C [33] of the same molecule?
**A.** Its viability, T/C is 72.6%.

**Q.** What about the viability, T/C [34] of the same molecule?
**A.** The viability, T/C was 72.1%.

**Q.** What about the viability, T/C [35] of the same molecule?
**A.** Its viability, T/C is 78%.

**Q.** And the viability, T/C [36]?
**A.** Its viability, T/C is 59.5%.
